Assay results published in patent US20260266837A1, “Methods for Cancer Recurrence Detection and Treatment Thereof” (Institut Curie, priority 2022, published 2026).

Assays:
MDA-MB-468 cells = test: Lineage barcode frequencies and diversity under 5-FU with EZH2i; assay type: cell-based, human
Text: Lentivirus packaging and cell transduction. Lentivirus was produced by transfecting the barcode plasmids pRRL-CMV-GFP-BCv2Ascl and p8.9-QV and pVSVG into HEK293T cells as previously described^30. MDA-MB-468 cells from ATCC were infected at passage 11 with lentivirus produced from the barcode library (pRRL-CMV-GFP-BCv 2Ascl) which includes 18206 different barcodes of 20 bp of a random stretch, at a low multiplicity of infection (MOI 0.1) to minimize the number of cells marked by multiple barcodes. Three weeks after transduction, cells were sorted for GFP expression to select cells with barcode insertion, and used for drug treatment.
Bulk lineage barcode library preparation and sequencing. Lineage barcodes are recovered by isolating genomic DNA from cells of interest (NucleoSpin Tissue, Mini kit for DNA from cells and tissue, Macherey Nagel, Ref: 740952.50). From the isolated genomic DNA, barcodes are amplified with three nested PCR steps as decribed in^30 (see Extended Table 1 for primer sequence). In short, after a first specific PCR for the common region of the lineage barcodes, the amplified material was prepared for sequencing by addition of the illumina sequencing adaptaters and indexing and purification. Sequencing was done in order to obtain 50 reads, on average, per barcoded cell.
Single-cell lineage barcode extraction from 10× datasets. […] To avoid running scripts on all reads we: 1. used samtools to extract all unmapped reads from the 10× output bam file, 2. used awk to take reads with either a 3′ or 5′ 20 bp match to the constant flanking region of the barcode allowing one mismatch, 3. retained only reads with both a 10× cell barcode and 10× UMI. We then located the 20 bp match to one of the constant flanking regions allowing one mismatch (but filtered out reads where a mismatch was in the first or last base to ensure the barcode is at the expected position). We then further required a 4 bp exact match on the other side of the barcode, and then extracted the 20 bp viral barcode, read name, 10× cell barcode and 10× UMI.
To assign one viral barcode to each 10× cell barcode, we determined a consensus viral barcode for each UMI. For each position in the barcode we returned the most frequently observed base and the proportion of reads supporting this consensus. Barcodes associated with a 10× CB-UMI pair were filtered if the proportion of reads supporting a position was ≤0.5 at ≥3 positions. […]
Bulk barcode pre-processing. […] In brief, using R-3.4.0 (R Development Core Team (2019) http://www.R-project.org), raw reads were first filtered for perfect to the input index-and common-sequences using XCALIBR (https://github.com/NKI-GCF/xcalibr) and filtered against the barcode reference list. […]

[1] = tested on: MDA-MB-468 cells, persister genes; test: scRNA-seq expression changes induced by EZH2i-1 in the absence of chemotherapy; assay type: cell-based, human
Method: Cell lines, culture conditions and drug treatments. MDA-MB-468 cells were cultured in DMEM (Gibco-BRL, Ref: 11966025), supplemented with 10% heat-inactivated fetal calf serum (Gibco-BRL, Ref: 10270-106). HCC38 and BT20 cell lines were cultured in RPMI 1640 (Gibco-BRL, Ref: 11875085), supplemented with 10% heat-inactivated fetal calf serum. […] Cells were treated with 5 μM of 5-FU (Sigma, Ref: F6627) alone or in combination with KDM6A/Bi or EZH2i for indicated days. For EZH2i, cells were pretreated with UNC 1999, UNC 2400 or GSK 126 for 10 days before the addition of 5-FU for an additional 21 days (FIG. 4 and Extended FIG. 8).
Single-cell RNA-seq. For each single cell suspension (DMSO-DO- #1, 5-FU-D33- #1, 5-FU-D214- #1, 5-FU-D67- #2, 5-FU-D171- #2, 5-FU-D50- #3, 5-FU-D77- #3 and 5-FU-D202- #3) or PDX dissociated cells (PDX_95, PDX_39 or PDX_172, untreated and persister cells), approximately 3,000 cells were loaded on a Chromium Single Cell Controller Instrument (Chromium Single Cell 3′v3, 10× Genomics, Ref: PN-1000075) according to the manufacturer's instructions. Samples and libraries were prepared according to the manufacturer's instructions. Libraries were sequenced on a NovaSeq 6000 (Illumina) in PE 28-8-91 with a coverage of 50,000 reads/cell.
Single-cell RNA-seq analysis. The scRNA-seq sequencing files were preprocessed using the cellRanger pipeline. For PDX samples, files were aligned against hg19 and mm10 genomes and only cells with a majority of human reads were retained for the analysis. For the MDA-MB-468 human cell line, sequences were aligned against the hg38 genome only. Cells with less than 3,000 […] for MDA-MB-468 or 2,500 for PDX or more than 8,000 detected genes, or more than 100,000 reads were filtered out, as well as cells with a percent of mitochondrial reads greater than 15% or a percentage of spike in greater than 5%. Normalization, dimensionality reduction and Louvain clustering was done using monocle3 (v0.2.2)^52 keeping the first 50 Principal Components (PC). Cell cycle was determined for each cell using Seurat (v3.1.5)^53. […] Differentially expressed genes were obtained by comparing raw gene expression values using edgeR GLM statistical model^54. […] For MDA-MB-468 samples, as the number of cells was high, a subset of 500 cells per cluster was subsampled from each cluster for the differential analysis and downstream steps. Intra-cluster correlation scores were calculated using Pearson's correlation score, with a random subsampling of n=500 cells per cluster.

## CCCc1cc(C)[nH]c(=O)c1CNC(=O)c1cc(-c2ccc(N3CCN(C(C)C)CC3)nc2)cc2c1cnn2C(C)C [EZH2i-1]
MDA-MB-468 cells; R3 cluster, 5-FU with versus without EZH2i-1, p<10^-4
  diversity in lineage barcodes in CDH2+ persister populations: over 2 fold-increase
MDA-MB-468 cells; co-treatment with 5-FU, bulk lineage barcodes
  correlation scores between lineage frequencies in 5-FU and DMSO treated population: increased correlation scores
[1]; 23/37 genes, no chemotherapy
  activation of persister genes with depletion of H3K27me3 upon 5-FU treatment: 62%
[1]; 78/131 genes, no chemotherapy
  over-expression of persister genes independently of any H3K27me3 enrichment in untreated cells: 60%
[1]; EZH2i-1 treatment
  expression of candidate master TFs FOXQ1, FOSL1 and N 2RF2: re-expressed by EZH2i-1 treatment
[1]; early time points, D33 versus D0
  Pearson correlation of expression fold-changes induced by EZH2i-1 with those induced by chemotherapy in persister cells: 0.71
[1]; resistant cells
  Pearson correlation of expression fold-changes induced by EZH2i-1 with changes in resistant cells: 0.31
